The source made the active and inactive calls. The rule behind the calls is not given here.
What was measured:
[1] = system: Calf thymus DNA; assay: Binding affinity to calf thymus DNA assessed as intercalation by agarose gel electrophoresis; format: nucleic-acid assay; conditions: Bos taurus
[2] = system: Human immunodeficiency virus; assay: Inhibition of HIV integrase

Activity [1]: Active | Activity [2]: Active
Structure (SMILES): O=c1cc(-c2ccccc2)oc2cc(O)c(O)c(O)c12
